Data: patent US11241455B2, “Methods of treating disease by metabolic control of T-cell differentiation” (The J. David Gladstone Institutes, a testamentary trust …, priority 2016, dated 2022)

Assays:
Assay type in all cases: cell-based, mouse
[1] = system: differentiating iTreg cells; test: iTreg differentiation of CD4 naïve T cells (FOXP3-GFP reporter or intracellular staining of FOXP3); details: AOA added after 24 hours, analyzed at end of differentiation
Procedure: CD4 naïve T cells (CD4+CD25-CD62^highCD44^low) were obtained from interleukin (IL)-17F-red fluorescent protein (RFP)/FOXP3-green fluorescent protein (GFP) mice, which were characterized previously, or wild-type C57/BL6 mice, by cell sorting. 0.4 million cells were plated into 48 wells coated with anti-mouse CD3 (clone 145-2C11, eBioscience) […] and anti-mouse CD28 (clone 37.51, eBioscience) (1 μg/ml). The differentiation media for these naïve T cells was as follows: 0.5 ng/ml (or indicated) transforming growth factor (TGF) β, 200 U/ml mouse IL-2, 2 μg/ml anti-interferon (IFN) γ and 2 μg/ml anti-mouse IL4 for differentiation into iTreg cells; and 2.5 ng/ml TGFβ, 10 ng/ml mouse IL-1β, 10 ng/ml mouse IL-6, 10 ng/ml mouse IL-23, 2 μg/ml anti-mouse IFNγ, and anti-mouse IL-4 for differentiating into TH17 cells. The cells were supplemented with new medium at day 4. In cases in which small-molecule compounds were present, the fresh medium containing the same concentration of compounds was used. When necessary, the individual metabolite was added into the T-cell culture 6 hours later after initial cell plating. […]

[2] = system: differentiating TH17 cells; test: 15N-α-glutamine flux analysis (transamination) in differentiating TH17 cells
Procedure: CD4 naïve T cells, differentiating TH17 or iTreg cells (68 hours) were incubated with fresh media prior to labeling. The cells were then cultured for 4 hours at 37° C. with medium where the glutamine was replaced with the corresponding stable isotope label: 2 mM U-^13C glutamine or 2 mM ^15N-α-glutamine for 4 hours at 37° C. The cells were quickly collected and quickly washed with phosphate buffer saline (PBS), pelleted, and snap frozen in liquid nitrogen. The frozen samples were kept in −80° C. until extraction. Cell extracts were prepared by first adding 80/20 MeOH/H2O at −60° C. to the frozen pellets and collecting the supernatant after centrifugation at 4° C. The extracted samples were analyzed by high-resolution liquid-chromatography-mass spectrometry. Unlabeled glutamine-fed cells were used as background.
For amino acid profiling: The ultra-high pressure liquid chromatography (U-HPLC) system consisted of a Thermo Fisher Scientific (San Jose, USA) U-HPLC pumping system, coupled to an autosampler and degasser. Chromatographic separation of the intracellular metabolites was achieved by usage of a reversed phase Atlantis® T3 (3 μm, 2.1 mm ID×150 mm) column (Waters, Eschborn, Germany) and by implementation of a gradient elution program. […]

[3] = system: differentiating TH17 cells; test: Intracellular metabolite profiling by LC/MS in differentiating TH17 cells
Procedure: CD4 naïve T cells, differentiating TH17 cells (day 2.5), and differentiating iTreg cells (day 2.5) were obtained as described above. A solution of 80/20 methanol (MeOH)/H2O was used to extract intracellular metabolites. The extracted samples were analyzed with liquid chromatography (LC)/mass spectrometry (MS) metabolomics. 200 ng/mL of extraction standard (L-Glutamic acid-^13C5-^15N-d5) was added into samples, and the peak value for each metabolite was normalized to extraction standard. The data was transformed into Log 2 and clustered. Cell extracts obtained as described above were analyzed for relative abundance of ^13C and ^15N metabolites by liquid chromatography-triple quadrupole mass spectrometry (LC-MS) using scheduled selective reaction monitoring (SRM) for each metabolite of interest, with the detector set to negative mode. Quantitation of intracellular 2-hydroxyglutarate (2HG) was conducted as described previously (Kernesky et al., Blood 2015, 125(2) 296-303).

[4] = system: FOXP3 promoter and its intronic CpG island; test: Methylation analysis by bisulfite sequencing, T cells under TH17 condition; details: 0.5 mM dimethyl R-2-HG (day 4) or AOA (day 6), male mice
Procedure: The method is essentially the same as described previously (Kim, et al. J Exp Med 204 (7), 1543-1551 (2007)). Briefly, genomic DNA was purified with Blood & Cell Culture DNA Midi Kit (Qiagen). Bisufite conversion of genomic DNA was performed using Epitect® bisulfite kit (Qiagen), according to the manufacture's instruction. The PCR product was run on 2% agarose, purified and cloned using TOPO® TA Cloning® Kit with PCR®4. Clones are picked for Sanger sequencing.

[5] = differentiating TH17 cells, day 2.5, 0.5 mM AOA

SMILES: NOCC(=O)O [AOA, (aminooxy)-acetic acid]
- iTreg cell induction under iTreg differentiation conditions [1]: dose-dependently promote iTreg cell induction
- reduction of total intracellular 15N-α-aspartate ([2]; differentiating TH17 cells fed 2 mM 15N-α-glutamine for 4 hours): 90%
- de novo synthesis for several amino acids (15N label incorporation) ([2]; differentiating TH17 cells, 2 mM 15N-α-glutamine for 4 hours): significant decreases
- abundance of TCA cycle intermediates (α-KG, succinate, fumarate, malate, citrate) [3, 5]: reduced partially
- level of glutamate [3, 5]: slightly higher
- reduction of steady-state levels of 2-HG [3, 5]: 75%
- level of glutathione, oxidized glutathione, or L-asparate ([3]; re-plotted from FIG. 2a: differentiating TH17 or iTreg cells (day 2.5), absence or presence of AOA): does not affect
- methylation level of FOXP3 promoter and its intronic CpG island [4]: dramatically decreased the methylation levels
